# Assay results from publication PMC2288882 (The Journal of Cell Biology, 1991).
# Experiments:
# Format in all cases: binding
# [1] = target: Torpedo AChR αγ subunit combination (Tetronarce californica, UniProt P02710+P02714); experiment: biochemical
# [2] = target: Torpedo AChR αδ subunit combination (Tetronarce californica, UniProt P02710+P02718); experiment: biochemical
# [3] = target: native Torpedo AChR (all four subunits) (Tetronarce californica, UniProt P02710+P02714+P02718); conditions: extracts of oocytes expressing all four AChR subunits; Fig. 1 A
# Chain of native Torpedo AChR (all four subunits) (P02710 25-461): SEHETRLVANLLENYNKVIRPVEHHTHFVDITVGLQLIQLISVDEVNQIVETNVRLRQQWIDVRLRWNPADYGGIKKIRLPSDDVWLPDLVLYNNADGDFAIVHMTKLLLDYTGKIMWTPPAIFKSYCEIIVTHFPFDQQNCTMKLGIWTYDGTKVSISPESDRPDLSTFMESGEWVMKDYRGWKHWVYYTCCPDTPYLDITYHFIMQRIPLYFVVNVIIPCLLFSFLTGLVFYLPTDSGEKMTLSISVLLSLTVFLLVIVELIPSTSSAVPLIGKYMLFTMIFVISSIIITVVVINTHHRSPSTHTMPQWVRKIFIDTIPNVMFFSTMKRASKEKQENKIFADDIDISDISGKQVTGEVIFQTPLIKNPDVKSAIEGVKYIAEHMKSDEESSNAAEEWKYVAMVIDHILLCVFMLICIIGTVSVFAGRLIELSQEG
# Chain of native Torpedo AChR (all four subunits) (P02712 25-493, further chain): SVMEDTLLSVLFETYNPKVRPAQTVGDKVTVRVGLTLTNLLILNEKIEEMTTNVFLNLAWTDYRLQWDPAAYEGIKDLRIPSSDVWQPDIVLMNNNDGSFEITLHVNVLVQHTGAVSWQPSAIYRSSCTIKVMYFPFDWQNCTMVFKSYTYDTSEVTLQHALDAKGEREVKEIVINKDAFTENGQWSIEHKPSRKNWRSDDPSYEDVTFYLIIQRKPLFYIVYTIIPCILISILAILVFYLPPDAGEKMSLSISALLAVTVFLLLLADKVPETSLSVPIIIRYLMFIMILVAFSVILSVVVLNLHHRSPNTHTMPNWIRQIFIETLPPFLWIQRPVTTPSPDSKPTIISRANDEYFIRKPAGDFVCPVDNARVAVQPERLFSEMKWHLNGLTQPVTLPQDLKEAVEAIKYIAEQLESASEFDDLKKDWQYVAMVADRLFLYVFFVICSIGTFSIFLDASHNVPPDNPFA
# Chain of native Torpedo AChR (all four subunits) (P02718 22-522): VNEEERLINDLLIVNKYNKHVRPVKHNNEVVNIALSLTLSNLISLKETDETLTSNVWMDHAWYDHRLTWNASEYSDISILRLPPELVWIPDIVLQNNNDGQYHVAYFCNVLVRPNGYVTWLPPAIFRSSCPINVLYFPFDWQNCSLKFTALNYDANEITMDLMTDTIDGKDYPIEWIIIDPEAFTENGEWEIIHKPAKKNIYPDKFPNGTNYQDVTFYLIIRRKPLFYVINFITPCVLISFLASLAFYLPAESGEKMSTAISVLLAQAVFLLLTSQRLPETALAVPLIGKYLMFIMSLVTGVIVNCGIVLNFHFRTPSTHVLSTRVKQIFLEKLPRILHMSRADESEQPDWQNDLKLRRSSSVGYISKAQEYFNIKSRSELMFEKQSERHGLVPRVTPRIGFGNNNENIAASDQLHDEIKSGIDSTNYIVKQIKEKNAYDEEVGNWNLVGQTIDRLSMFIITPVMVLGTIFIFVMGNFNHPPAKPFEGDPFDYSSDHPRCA
# Chain of native Torpedo AChR (all four subunits) (P02714 18-506): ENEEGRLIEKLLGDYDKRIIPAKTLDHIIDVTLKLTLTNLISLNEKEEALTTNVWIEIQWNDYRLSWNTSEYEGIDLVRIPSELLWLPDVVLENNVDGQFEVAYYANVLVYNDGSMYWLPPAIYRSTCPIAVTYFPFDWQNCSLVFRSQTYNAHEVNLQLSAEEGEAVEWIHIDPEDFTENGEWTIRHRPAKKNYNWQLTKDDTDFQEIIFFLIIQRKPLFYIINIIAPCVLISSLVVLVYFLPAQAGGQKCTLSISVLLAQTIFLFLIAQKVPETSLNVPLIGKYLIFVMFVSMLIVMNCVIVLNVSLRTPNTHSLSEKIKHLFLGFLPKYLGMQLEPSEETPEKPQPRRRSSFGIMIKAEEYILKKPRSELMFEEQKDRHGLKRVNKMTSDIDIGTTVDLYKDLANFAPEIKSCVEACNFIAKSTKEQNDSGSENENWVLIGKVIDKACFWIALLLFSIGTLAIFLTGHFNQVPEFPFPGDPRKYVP
# Chain of Torpedo AChR αγ subunit combination (P02710 25-461): as the sequence (P02710 25-461) above
# Chain of Torpedo AChR αγ subunit combination (P02714 18-506): as the sequence (P02714 18-506) above
# Chain of Torpedo AChR αδ subunit combination (P02718 22-522): as the sequence (P02718 22-522) above
# Chain of Torpedo AChR αδ subunit combination (P02710 25-461): as the sequence (P02710 25-461) above
smiles,measurement,setting,value
COc1cc2c3cc1Oc1cc(ccc1O)C[C@@H]1c4c(cc(OC)c(O)c4Oc4ccc(cc4)C[C@@H]3N(C)CC2)CC[N+]1(C)C [curare],IC50,[1],~20 µM
same,IC50,[2],200 µM
same,shape of curare inhibition curve of αBgt binding,[3],biphasic curve
